Consider four compounds from patent US10583094B2.

For data set [1], the system named is freshly isolated R1 astrocytes. The experiment in a line: Na azide-induced blebbing and cell death of freshly isolated R1 astrocytes.
The next data set deals with rodent model of stroke. In words: Rodent model of stroke, mortality and hemisphere water (Example 9). Type of data set: in vivo, rat. Particulars: n=5 in each group.
For data set [2], the system named is MCA stroke (MCE model). In words: MCA stroke (MCE model): tissue water content by wet/dry weight. Type of data set: in vivo, Wistar rats. Particulars: 8 hr after stroke. The protocol: For large MCA strokes with malignant cerebral edema (MCE), the inventors first embolized microparticles (Nakabayashi et al., 1997) [polyvinyl alcohol (PVA) particles; […] […] TTC(−) portions of the involved hemisphere. […] Of these, 15 rats were used for validation of drug action (mortality, tissue water and glucose) and 5 rats were used for determination of drug distribution. […] For stroke size, stained sections were photographed and images were analyzed (Scion Image) to determine the percent of the involved hemisphere occupied by TTC(−) tissue; no correction for edema was performed. For some determinations of water or SUR1 protein content, individual coronal sections were divided under magnification into 3 parts: (i) the non-involved, control hemisphere; (ii) the TTC(+) portion of the involved hemisphere; (iii) the TTC(−) portion of the involved hemisphere. For each animal, pooled tissues from the 3 parts were then processed for tissue water measurements or for Western blots. Tissue water was quantified by the wet/dry weight method (Hua et al., 2003). Tissue samples were blotted to remove small quantities of adsorbed fluid. Samples were weighed with a precision scale to obtain the wet weight (WW), dried to constant weight at 80° C. and low vacuum, and then reweighed to obtain the dry weight (WD). The percent H2O of each tissue sample was then calculated as (WW-WD)×100/WW.

Another data set deals with thromboembolic stroke. In words: Thromboembolic stroke with rtPA reperfusion at 6 hr: hemorrhagic conversion. Type of data set: in vivo, spontaneously hypertensive rats. Particulars: rtPA 10 mg/kg i.v. at 6 hr, 24 hr after stroke. On the procedure:
A rodent model of thromboembolic stroke was used (Aoki et al., 2002; Kijkhuizen et al., 2001; Kano et al., 2000; Sumii et al., 2002; Tejima et al., 2001). […] Sumii et al., 2002). Rectal temperature was maintained at 37° C. with a thermostat-controlled heating pad. The right femoral artery was cannulated, and physiological parameters, including temperature, mean blood pressure, pH, pO2, and pCO2, glucose were monitored. Temporary focal ischemia was obtained with an embolic model that used allogeneic clots to occlude the MCA. Allogeneic, thrombin-induced, fibrin-rich blood clots were prepared using methods adapted from […] et al. (Asahi et al., 2000; […] et al., 2003; Sumii et al., 2002). Seven clots, 1.5 mm long, were used for embolizing. Using a ventral cervical incision, the internal and external carotid arteries were exposed. The external carotid artery and pterygopalatine arteries were ligated. Removable surgical clips were applied to the common and internal carotid arteries. The modified PE-50 catheter containing the clots was inserted retrograde into the external carotid artery and advanced up to the internal carotid artery. The temporary clips were removed, and the clots were injected. Incisions were closed. […] Physiological parameters, including temperature, mean blood pressure (tail cuff plethysmography), blood gases and glucose were monitored. […]

The next data set has as its system MMP-9 & MMP-2. In words: Zymography of gelatinase activity of recombinant enzyme and stroke tissue. Type of data set: biochemical. Conditions: glibenclamide 10 μM; MMP inhibitor II 300 nM. The protocol: Activation of MMP-9 & MMP-2 in stroke tissue was compared to controls.
Next, the supernatants underwent a gelatinase purification process with gelatin-Sepharose 4B (Pharmacia), and Zymography was performed on the purified supernatants in sodium dodecyl sulfate gels containing gelatin (Rosenberg, 1994). Dried gels were scanned with a transparency scanner, and images were analyzed by densitometry. The relative lysis of an individual sample was expressed as the integrated density value of its band and divided by the protein content of the sample.

For data set [3] the following is noted: rat, in vivo.
Another data set concerns SUR1. The experiment in a line: SUR1 knockdown by antisense ODN infusion at gelfoam implantation site; R1 astrocyte response to Na azide. Conditions: for Depolarization of R1 astrocytes on Na azide: Na azide 1 mM. Type of data set: cell-based, rat. From the text: To further test involvement of SUR1, SUR1 expression was “knocked down” in situ by infusing oligodeoxynucleotide (ODN) for 14 days using a mini-osmotic pump, with the delivery catheter placed in the gelfoam implantation site in the brain, in the otherwise standard model we use for R1 astrocyte isolation ([…] et al., 1980, […] et al., 2002, […] et al., 2000, […] et al., 1999). Knockdown of SUR1 expression (SUR1KD) was achieved using antisense (AS; [NT] ID NO: 9)) (Yokoshiki et al., 1999) oligodeoxynucleotide (ODN), with scrambled ([…] ID NO: 10)) ODN being used as control. […] In R1 astrocytes from SUR1KD, however, Na azide had little effect on resting membrane potential (FIG. 24D).

Data set [4] relates to MCA stroke (MCE model). The arrangement: species or system Wistar rats. Particulars: rat, in vivo, sc.

`CC1=NS(=O)(=O)c2cc(Cl)ccc2N1` [diazoxide]: the “Cell morphology (blebbing) on exposure to channel opener” value in data set [1] (phase contrast, observed over 30 min) is “developed progressive blebbing consistent with cytotoxic edema”.
For `COc1ccc(Cl)cc1C(=O)NCCc1ccc(S(=O)(=O)NC(=O)NC2CCCCC2)cc1` [glibenclamide], the “Excess water in stroke hemisphere compared with saline-treated rats” value in the data set with rodent model of stroke is “only half as much excess water”. In the data set on MCA stroke (MCE model) [2], the “Rise of water in TTC(+) tissue over uninvolved hemisphere” value is reported as 2.5% and the “Rise of water in involved hemisphere over control hemisphere” value is 2.0%. For the same compound, the “Animals with hemorrhagic conversion” value in the data set on thromboembolic stroke (co-treated with glibenclamide 1.5 μg/kg i.v. plus pump 300 μM at ½ μl/hr) was 1/5. Besides, in the data set on thromboembolic stroke (co-treated with glibenclamide), the “Animals showing no evidence of hemorrhage” value is on record as 4/5. The “Necrotic death (propidium iodide) induced by Na azide” value in data set [1] (Na azide 1 mM, glibenclamide 1 μM) was “largely prevented”. In the data set with MMP-9 & MMP-2, the “Gelatinase activity in presence of compound” value is “the same as that assayed without”. In addition, the “Serum glucose at 8 hr” value in data set [3] was 93 ± 3 mg/dL.
In the case of “5′-GGCCGAGTGGTTCTCGGT-3′ (chemistry not given here) [AS-ODN, antisense oligodeoxynucleotide used to knock down SUR1 expression]”, the “Depolarization of R1 astrocytes on Na azide” value with SUR1 is reported as “little or no depolarization”; in the data set on SUR1 (listed as SUR1KD), 8.7±1.7 mV. For the same compound, the “SUR1 expression in gliotic capsule (immunoblot)” value in the data set with SUR1 (ODN infused for 14 days, compared with scrambled ODN) is recorded as “significant reduction in SUR1 expression”. Also, the “Membrane blebbing after exposure to Na azide” value in the data set with SUR1 (R1 astrocytes) is recorded as “not observed”.
As to “BODIPY-FL-glyburide [BODIPY-glibenclamide]”, in the data set with MCA stroke (MCE model) [2], the “Water in TTC(+) tissue of involved hemisphere” value came to 82.7±1.4%. Further, the “Mortality during 7 days after MCA stroke” value in the data set on MCA stroke (MCE model) [4] is recorded as 40%.
